Data from US20260345619A1 (Principia Biopharma Inc., priority 2023, published 2026).

Test: Pre-bronchodilator FEV1 and percent predicted FEV1 by spirometry, change from baseline
Assay type: in vivo, human
Procedure: Spirometry is a standard test to measure patients' lung function.
The primary endpoint was the proportion of patients with LOAC. The key secondary endpoint for the study was change in pre-bronchodilator FEV1 from baseline at EOT.
Reversibility is defined as an increase of the absolute FEV1 after administration of bronchodilator and is measured by spirometry as postbronchodilator increase in FEV1 in percent of the prebronchodilator FEV1. After spirometry for measuring prebronchodilator FEV1, participants were to receive 2-4 puffs of albuterol/salbutamol or levalbuterol/levosalbutamol from a primed MDI. The postbronchodilator spirometry may have been repeated several times within 30 minutes after administration of bronchodilator. Alternatively, and only if it was consistent with usual office practice (to be documented), reversibility may have been performed using inhalation of nebulized albuterol/salbutamol or levalbuterol/levosalbutamol.
Secondary endpoints included pre-bronchodilator FEV1 change from baseline at EOT, ACQ-5 score change from baseline, and AQLQ score change from baseline. Other secondary and exploratory endpoints are described in Table 2.

[1] = 400 mg BID, Week 12, before LOAC and OCS use, as observed, mITT
[2] = 400 mg BID, Week 12, observed/LOCF imputed, mITT
[3] = 400 mg BID, Week 12, on-site conventional spirometry as observed, mITT
[4] = 400 mg BID, Week 12, reduced model, mITT
[5] = 400 mg BID, Week 16, before LOAC and OCS use, as observed, mITT
[6] = 400 mg BID, Week 16, on-site conventional spirometry as observed, mITT
[7] = 400 mg TID, Week 12, 1 exacerbation within 2 years
[8] = 400 mg TID, Week 12, 2 exacerbations within 2 years
[9] = 400 mg TID, Week 12, Eastern Europe
[10] = 400 mg TID, Week 12, Latin America
[11] = 400 mg TID, Week 12, age <45 years
[12] = 400 mg TID, Week 12, age ≥45 years
[13] = 400 mg TID, Week 12, asthma onset age <12 years
[14] = 400 mg TID, Week 12, asthma onset age <18 years
[15] = 400 mg TID, Week 12, asthma onset age ≥12-<18 years
[16] = 400 mg TID, Week 12, asthma onset age ≥18-<40 years
[17] = 400 mg TID, Week 12, asthma onset age ≥18 years
[18] = 400 mg TID, Week 12, asthma onset age ≥40 years
[19] = 400 mg TID, Week 12, atopic medical conditions: No
[20] = 400 mg TID, Week 12, atopic medical conditions: Yes
[21] = 400 mg TID, Week 12, background ICS dose High
[22] = 400 mg TID, Week 12, background ICS dose Medium
[23] = 400 mg TID, Week 12, baseline ACQ-5 >2
[24] = 400 mg TID, Week 12, baseline ACQ-5 ≤2
[25] = 400 mg TID, Week 12, baseline BMI <25 kg/m^2
[26] = 400 mg TID, Week 12, baseline BMI ≥25-<30 kg/m^2
[27] = 400 mg TID, Week 12, baseline BMI ≥30 kg/m^2
[28] = 400 mg TID, Week 12, baseline FEV1 <2.1955 L (median)
[29] = 400 mg TID, Week 12, baseline FEV1 reversibility <12%
[30] = 400 mg TID, Week 12, baseline FEV1 reversibility ≥12%
[31] = 400 mg TID, Week 12, baseline FEV1 ≥2.1955 L (median)
[32] = 400 mg TID, Week 12, baseline FeNO <25 ppb
[33] = 400 mg TID, Week 12, baseline FeNO <35 ppb
[34] = 400 mg TID, Week 12, baseline FeNO ≥25 ppb

## CC(C)(C=C(C#N)C(=O)N1CCC[C@@H](n2nc(-c3ccc(Oc4ccccc4)cc3F)c3c(N)ncnc32)C1)N1CCN(C2COC2)CC1 (mixture of isomers) [rilzabrutinib, (R)-2-[3-[4-amino-3-(2-fluoro-4-phenoxy-phenyl)pyrazolo[3,4-d]pyrimidin-1-yl]piperidine-1-carbonyl]-4-methyl-4-[4-(oxetan-3-yl)piperazin-1-yl]pent-2-enenitrile]
[1]
  Pre-bronchodilator FEV1 change from baseline, median: -0.04 L
  Pre-bronchodilator FEV1 percent change from baseline, mean: −2.63%
  Pre-bronchodilator FEV1 percent change from baseline, median: −2.04%
[2]
  Change from baseline in pre-bronchodilator FEV1, Mean: -0.04 L
  Change from baseline in pre-bronchodilator FEV1, Median: -0.02 L
  Pre-bronchodilator FEV1, Mean: 2.02 L
  Pre-bronchodilator FEV1, Median: 1.88 L
  Pre-bronchodilator FEV1, mean: 2.02 L
  Pre-bronchodilator FEV1, median: 1.88 L
  Pre-bronchodilator FEV1 change from baseline, LS Mean: -0.07 L
  Pre-bronchodilator FEV1 change from baseline, LS Mean Diff vs. placebo: 0.01 L
  Pre-bronchodilator FEV1 change from baseline, Mean: -0.04 L
  Pre-bronchodilator FEV1 change from baseline, median: -0.02 L
[3]
  Pre-bronchodilator FEV1, mean: 1.97 L
  Pre-bronchodilator FEV1, median: 1.82 L
  Pre-bronchodilator FEV1 change from baseline, Mean: -0.03 L
  Pre-bronchodilator FEV1 change from baseline, median: -0.05 L
  Pre-bronchodilator FEV1 percent change from baseline, mean: −3.27%
  Pre-bronchodilator FEV1 percent change from baseline, median: −2.70%
[4]
  Change from baseline in pre-bronchodilator FEV1, LS Mean: -0.07 L
  Change from baseline in pre-bronchodilator FEV1, LS Mean diff vs. placebo: 0.01 L
[5]
  Pre-bronchodilator FEV1, mean: 2.30 L
  Pre-bronchodilator FEV1, median: 2.01 L
  Pre-bronchodilator FEV1 change from baseline, Mean: 0.29 L
  Pre-bronchodilator FEV1 change from baseline, median: 0.28 L
  Pre-bronchodilator FEV1 percent change from baseline, mean: 13.96%
  Pre-bronchodilator FEV1 percent change from baseline, median: 15.23%
[6]
  Pre-bronchodilator FEV1, mean: 2.30 L
  Pre-bronchodilator FEV1, median: 2.01 L
  Pre-bronchodilator FEV1 change from baseline, Mean: 0.29 L
  Pre-bronchodilator FEV1 change from baseline, median: 0.28 L
  Pre-bronchodilator FEV1 percent change from baseline, mean: 13.96%
  Pre-bronchodilator FEV1 percent change from baseline, median: 15.23%
[7]
  Pre-bronchodilator FEV1 change from baseline, LS Mean: -0.14 L
  Pre-bronchodilator FEV1 change from baseline, LS Mean Diff vs. placebo: -0.13 L
  Pre-bronchodilator FEV1 change from baseline, Mean: -0.16 L
[8]
  Pre-bronchodilator FEV1 change from baseline, LS Mean: -0.08 L
  Pre-bronchodilator FEV1 change from baseline, LS Mean Diff vs. placebo: 0.06 L
  Pre-bronchodilator FEV1 change from baseline, Mean: -0.16 L
400 mg TID, Week 12, >2 exacerbations within 2 years
  Pre-bronchodilator FEV1 change from baseline, Mean: 0.01 L
[9]
  Pre-bronchodilator FEV1 change from baseline, LS Mean: -0.18 L
  Pre-bronchodilator FEV1 change from baseline, LS Mean Diff vs. placebo: -0.08 L
  Pre-bronchodilator FEV1 change from baseline, Mean: -0.18 L
[10]
  Pre-bronchodilator FEV1 change from baseline, LS Mean: -0.08 L
  Pre-bronchodilator FEV1 change from baseline, LS Mean Diff vs. placebo: -0.12 L
  Pre-bronchodilator FEV1 change from baseline, Mean: -0.08 L
400 mg TID, Week 12, Western Countries
  Pre-bronchodilator FEV1 change from baseline, Mean: -0.18 L
[11]
  Pre-bronchodilator FEV1 change from baseline, LS Mean: -0.24 L
  Pre-bronchodilator FEV1 change from baseline, LS Mean Diff vs. placebo: -0.18 L
  Pre-bronchodilator FEV1 change from baseline, Mean: -0.24 L
[12]
  Pre-bronchodilator FEV1 change from baseline, LS Mean: -0.04 L
  Pre-bronchodilator FEV1 change from baseline, LS Mean Diff vs. placebo: -0.01 L
  Pre-bronchodilator FEV1 change from baseline, Mean: -0.08 L
[13]
  Pre-bronchodilator FEV1 change from baseline, LS Mean: -0.34 L
  Pre-bronchodilator FEV1 change from baseline, LS Mean Diff vs. placebo: -0.28 L
  Pre-bronchodilator FEV1 change from baseline, Mean: -0.25 L
[14]
  Pre-bronchodilator FEV1 change from baseline, LS Mean: -0.25 L
  Pre-bronchodilator FEV1 change from baseline, LS Mean Diff vs. placebo: -0.27 L
  Pre-bronchodilator FEV1 change from baseline, Mean: -0.18 L
[15]
  Pre-bronchodilator FEV1 change from baseline, LS Mean: 0.05 L
  Pre-bronchodilator FEV1 change from baseline, LS Mean Diff vs. placebo: -0.40 L
  Pre-bronchodilator FEV1 change from baseline, Mean: -0.01 L
[16]
  Pre-bronchodilator FEV1 change from baseline, LS Mean: -0.18 L
  Pre-bronchodilator FEV1 change from baseline, LS Mean Diff vs. placebo: -0.08 L
  Pre-bronchodilator FEV1 change from baseline, Mean: -0.17 L
[17]
  Pre-bronchodilator FEV1 change from baseline, LS Mean: -0.10 L
  Pre-bronchodilator FEV1 change from baseline, LS Mean Diff vs. placebo: -0.02 L
  Pre-bronchodilator FEV1 change from baseline, Mean: -0.14 L
[18]
  Pre-bronchodilator FEV1 change from baseline, LS Mean: 0.01 L
  Pre-bronchodilator FEV1 change from baseline, LS Mean Diff vs. placebo: 0.06 L
  Pre-bronchodilator FEV1 change from baseline, Mean: -0.07 L
[19]
  Pre-bronchodilator FEV1 change from baseline, LS Mean: -0.15 L
  Pre-bronchodilator FEV1 change from baseline, LS Mean Diff vs. placebo: -0.11 L
  Pre-bronchodilator FEV1 change from baseline, Mean: -0.18 L
[20]
  Pre-bronchodilator FEV1 change from baseline, LS Mean: -0.12 L
  Pre-bronchodilator FEV1 change from baseline, LS Mean Diff vs. placebo: -0.04 L
  Pre-bronchodilator FEV1 change from baseline, Mean: -0.09 L
[21]
  Pre-bronchodilator FEV1 change from baseline, LS Mean: -0.13 L
  Pre-bronchodilator FEV1 change from baseline, LS Mean Diff vs. placebo: -0.07 L
  Pre-bronchodilator FEV1 change from baseline, Mean: -0.13 L
[22]
  Pre-bronchodilator FEV1 change from baseline, LS Mean: -0.15 L
  Pre-bronchodilator FEV1 change from baseline, LS Mean Diff vs. placebo: -0.10 L
  Pre-bronchodilator FEV1 change from baseline, Mean: -0.18 L
[23]
  Pre-bronchodilator FEV1 change from baseline, LS Mean: -0.15 L
  Pre-bronchodilator FEV1 change from baseline, LS Mean Diff vs. placebo: -0.16 L
  Pre-bronchodilator FEV1 change from baseline, Mean: -0.17 L
[24]
  Pre-bronchodilator FEV1 change from baseline, LS Mean: -0.12 L
  Pre-bronchodilator FEV1 change from baseline, LS Mean Diff vs. placebo: -0.01 L
  Pre-bronchodilator FEV1 change from baseline, Mean: -0.10 L
[25]
  Pre-bronchodilator FEV1 change from baseline, LS Mean: -0.19 L
  Pre-bronchodilator FEV1 change from baseline, LS Mean Diff vs. placebo: -0.16 L
  Pre-bronchodilator FEV1 change from baseline, Mean: -0.21 L
[26]
  Pre-bronchodilator FEV1 change from baseline, LS Mean: -0.11 L
  Pre-bronchodilator FEV1 change from baseline, LS Mean Diff vs. placebo: -0.05 L
  Pre-bronchodilator FEV1 change from baseline, Mean: -0.14 L
[27]
  Pre-bronchodilator FEV1 change from baseline, LS Mean: -0.11 L
  Pre-bronchodilator FEV1 change from baseline, LS Mean Diff vs. placebo: -0.07 L
  Pre-bronchodilator FEV1 change from baseline, Mean: -0.14 L
[28]
  Pre-bronchodilator FEV1 change from baseline, LS Mean: -0.03 L
  Pre-bronchodilator FEV1 change from baseline, LS Mean Diff vs. placebo: -0.09 L
  Pre-bronchodilator FEV1 change from baseline, Mean: -0.05 L
[29]
  Pre-bronchodilator FEV1 change from baseline, LS Mean: -0.16 L
  Pre-bronchodilator FEV1 change from baseline, LS Mean Diff vs. placebo: -0.12 L
  Pre-bronchodilator FEV1 change from baseline, Mean: -0.18 L
[30]
  Pre-bronchodilator FEV1 change from baseline, LS Mean: -0.01 L
  Pre-bronchodilator FEV1 change from baseline, LS Mean Diff vs. placebo: -0.02 L
  Pre-bronchodilator FEV1 change from baseline, Mean: 0.00 L
[31]
  Pre-bronchodilator FEV1 change from baseline, LS Mean: -0.22 L
  Pre-bronchodilator FEV1 change from baseline, LS Mean Diff vs. placebo: -0.09 L
  Pre-bronchodilator FEV1 change from baseline, Mean: -0.21 L
[32]
  Pre-bronchodilator FEV1 change from baseline, LS Mean: -0.16 L
  Pre-bronchodilator FEV1 change from baseline, LS Mean Diff vs. placebo: -0.12 L
  Pre-bronchodilator FEV1 change from baseline, Mean: -0.19 L
[33]
  Pre-bronchodilator FEV1 change from baseline, LS Mean: -0.14 L
  Pre-bronchodilator FEV1 change from baseline, LS Mean Diff vs. placebo: -0.09 L
  Pre-bronchodilator FEV1 change from baseline, Mean: -0.18 L
[34]
  Pre-bronchodilator FEV1 change from baseline, LS Mean: -0.09 L
  Pre-bronchodilator FEV1 change from baseline, LS Mean Diff vs. placebo: -0.04 L
  Pre-bronchodilator FEV1 change from baseline, Mean: -0.09 L
400 mg TID, Week 12, baseline FeNO ≥35 ppb
  Pre-bronchodilator FEV1 change from baseline, LS Mean: -0.07 L
